Test results from patent publication US7115566B2, “Compounds and method for the prevention and treatment of diabetic retinopathy” (University of Florida, priority 1997, dated 2006).

Key:
[1] = continuous infusion pump for 4 weeks, cited from earlier work
[2] = tested on: insulin secretion; settings: normal physiological conditions; cited from earlier work
[3] = tested on: chorioallantoic membrane of the developing chick embryo; settings: chick chorioallantoic membrane assay; cited from earlier work
[4] = compared with octreotide; cited from earlier work
[5] = in vivo; cited from earlier work
[6] = after a similar dose (200 μg/kg); cited from earlier work
[7] = pilot study of continuous octreotide infusion to prevent progression of diabetic retinopathy; format: in vivo, human
[8] = several months of continuous infusion; 4 patients; cited from earlier work
[9] = octreotide in patients with severe proliferative diabetic retinopathy (Grant, 1987–1994)
[10] = tested on: human retinal endothelial cells (HREC); assay: proliferation and [3H] thymidine incorporation in growth factor stimulated HREC; format: cell-based
[11] = tested on: cytomegalovirus (CMV); settings: cited from earlier work
[12] = tested on: retinal neovascularization; assay: intravitreal IGF-1 rabbit model of retinal angiogenesis; format: in vivo, pigmented rabbits; settings: for ophthalmoscopy findings: all rabbits
Description: Pigmented rabbits were selected for study after considering the ocular anatomy, animal supply and established use of the species in ophthalmology. Growth factor was injected into the vitreous of pigmented rabbits (n=30) as previously described. Briefly, rabbits were anesthetized with ketamine and xylazine and a 30 g needle was used to withdraw 80 μl of fluid from the anterior eye chamber under an operating microscope. Then a 30 g needle was used to administer 0.1 ml of balanced salt solution containing 600 μg of IGF-1 adjacent to the surface of the retina near the optic nerve head. The rabbits were placed in a supine position for 30–60 minutes to facilitate solution dispersal onto the vascularized medullary ray and disc. Control animals (n=10) received the same dose of heat-inactivated protein (IGF-I held at 100° C. for 30 min). Animals were periodically examined using indirect ophthalmoscopy, fundus photography, and fluorescein angiography from days 2 through 21.
The temporal sequence of the anatomical changes seen in the IGF 1-injected eyes is as follows. […] The fundus of control eyes remained normal in appearance. […] Numerous distended vessels with edematous endothelial cells were found on the surface of the retina along with extensive proliferation of their extracellular matrix. […] Reduplication of the basement membrane, a strong indicator of endothelial cell hyperreactivity, was a consistent finding in all IGF-1 treated eyes. Endothelial cell mitosis was validated using antibody to proliferating cell nuclear antigen. Systemic unpackaged peptide, e.g. lanreotide can be tested for its ability to inhibit IGF-1 induced neovascularization in this rabbit model.

[13] = six patients, 25 to 100 μg three times a day

Compound: lanreotide
- disease regressed [1]: 2 patients
- disease progression halted ([1]; subjects who completed dosing): 8 of 8
- effect on insulin secretion [2]: suppress insulin secretion
- inhibition of angiogenesis [3]: more potent in inhibiting angiogenesis compared to the natural somatostatin tetradecapeptide
- clinical tolerance [4]: better tolerated than octreotide
- excreted intact [5]: > 90%
- stability of the peptide [5]: stable
- LNT levels in rat eyes [6]: unable to detect significant LNT levels

Compound: octreotide
- HgA1c ([7]; four octreotide-treated subjects, within the first 6 months of therapy): normalized
- suppression of GH and IGF-1 levels into the hypopituitary range ([7]; four patients): not achieved in any patient
- clinical or angiographic improvement ([7]; four patients, continuous infusion, doses up to 5000 μg/day): no patient showed clear clinical or angiographic improvement
- progression to high risk characteristics requiring laser therapy ([7]; four patients, in at least one eye): Laser therapy was initiated in all four patients
- visual acuity ([7]; patients receiving octreotide): statistically significant improvement
- retinal function [8]: improved
- HgA1c ([9]; all seven study patients): reductions
- sense of well-being ([9]; all seven study patients): improved
- visual acuity ([9]; all seven study patients): improved
- posterior pole neovascularization ([9]; seventh patient): not affected
- side effects leading to stopping the drug ([9]; seventh patient): gastrointestinal side effects
- iris neovascularization ([9]; seventh patient with severe bilateral neovascular glaucoma): regressed completely
- disease progression during treatment period [9, 13]: None of the six patients showed disease progression
- regression of NVD [9, 13]: four
- [3H] thymidine incorporation ([10]; IGF-1 and b-FGF stimulated HREC): dose-dependent inhibition
- proliferation of HREC ([10]; IGF-1 stimulated cultures): significantly decreased
- inhibitory effect on proliferation of HREC ([10]; b-FGF stimulated cultures): 40–45%
- cell proliferation ([10]; cells grown in control medium): minimal effect

Compound: Nc1nc(O)c2ncn(COC(CO)CO)c2n1 [ganciclovir]
- CMV-encephalitis ([11]; at autopsy): widespread CMV-encephalitis
- treatment of CMV retinitis ([11]; verified at autopsy): successful treatment of CMV retinitis

Compound: IGF-1: insulin-like growth factor 1, injected intravitreally to induce retinal neovascularization
- ophthalmoscopy findings ([12]; 3 days after intravitreal injection of 600 μg): hyperemia with vascular engorgement
- microscopic findings on the surface of the retina ([12]; all eyes treated): abnormal vessels were observed on the surface of the retina
- ophthalmoscopy findings ([12]; by day 7): Vascular tortuosity, intraretinal hemorrhage, and severe increased hyperemia surrounding the optic disc
- ophthalmoscopy findings ([12]; by day 21): Fibrosis developed over the optic disc and medullary ray
